Reference: US4749710A, “Immunosuppressive agents” (priority 1985, dated 1988)

Legend:
Assay type in all cases: cell-based
[1] = tested on: human mixed leukocyte-tumor cultures; test: Total viable cells recovered from human mixed leukocyte-tumor cultures; settings: Table IV
Method: Human cytotoxic T-lymphocytes were generated in mixed leukocyte-tumor cultures by known methods. Specifically, blood from normal volunteer donors was drawn into heparinized syringes, diluted 1:1 with calcium-magnesium free Hanks' balanced salt solution (Ca-Mg free HBSS), and layered over lymphocyte separation medium (Litton Bionetics, Kensington, MD). After centrifugation at 500xg for 20-30 min at room temperature, peripheral blood mononuclear cells were harvested from the interface. The peripheral blood mononuclear leukocytes were centrifuged and resuspended in Ca-Mg free HBSS and were subsequently separated from platelets by centrifugation at 500xg through a solution of 20% sucrose and 1% human AB serum in Ca-Mg free HBSS. The cells were washed once and finally resuspended in tissue culture medium. […] Cells to be used as stimulator cells in mixed leukocyte-tumor cultures were irradiated with 10,000 rads of gamma irradiation to preclude proliferation in culture. Mixed leukocyte-tumor cell cultures were established in 16 mm tissue culture wells at a final volume of 1.5 ml per well containing 2×10^6 peripheral blood mononuclear leukocytes and 5×10^4 irradiation-inactivated stimulator cells. […]

[2] = tested on: IgM production by human lymphocytes; test: Inhibition of IgM production by human lymphocytes in vitro (SAC activation, ELISA); settings: 8 days, vehicle control 2.49 ± 0.17
Text: (§1) General Test Description Humoral immunity comprises one of the two major arms of the immune system and generally is beneficial. However, a number of disease states are characterized by a hyperactive immune system responding to self tissue antigens. […] In these diseases it would be important to suppress the humoral immune system.
(§2) In the following studies we used established methods to examine the effect of Vitamin D derivatives on the in vitro production of immunoglobulin (Ig) by human peripheral blood leukocytes (PBL) following polyclonal activation. Immunoglobulin was induced from PBL by co-culturing the PBL with the polyclonal B cell activator Staphylococcus aureus strain Cowan I (SAC) for a period of 8 days. The quantity of Ig produced in the culture supernatants was determined by using an enzyme linked immunosorbent assay (ELISA). The effect of Vitamin D derivatives was determined by comparing the amount of antibody produced in cultures containing Vitamin D derivatives to those cultures containing an appropriate concentration of vehicle (ethanol).
(§3) Solutions of vitamin D derivatives. Stock solutions of vitamin D derivatives were prepared as described previously for the murine CTL experiments.
(§4) INDUCTION OF HUMAN IG SECRETION Human peripheral blood mononuclear leukocytes were prepared from one day old buffy coat preparations obtained from the American Red Cross (Lansing, MI). […] Twenty five ml of this preparation were overlayed onto 25 ml of Ficoll-Paque contained in a 50 ml polypropylene centrifuge tube. After centrifugation at 400×g at 15° C. for 40 min, the cells at the interface of the medium and Ficoll were removed and washed 3 times in 50 ml RPMI medium and centrifuged at 300×g for 10 minutes. After the final centrifugation,the cell pellet was suspended in RPMI medium containing 20% fetal bovine serum (FBS) and 80 μg/ml gentamicin. The number of viable cells was determined by trypan blue exclusion and were then suspended to 2.5×10^6 viable cells per ml in RPMI containing 20% FBS and gentamicin. Human PBL were induced to secrete Ig as follows. One hundred microliters of the PBL suspension and an additional 100 μl of a 1:20,000 (v/v) preparation of SAC suspended in RPMI containing 1% FBS were added to each well of a 96-well microtiter plate. Selected wells were also set up without the addition of SAC to serve as negative controls (spontaneous Ig secretion). Each well then received 20 μl of either the appropriate dilution of Vitamin D derivative in RPMI with 1% ethanol or RPMI with 1% ethanol (vehicle control). The vitamin D derivatives were tested at final concentrations of 10^-5, 10^-6, 10^-7, 10^-8, 10^-9, and 10^-10 M and in all cases the vehicle (ethanol) concentration was 0.1%. All treatments were performed in triplicate. […] The samples were then either assayed immediately or stored at -20° C. until assayed by the ELISA technique described below.
(§5) QUANTITATION OF SECRETED IG (ELISA ASSAY) ELISA plates were prepared for quantitating human IgG and IgM levels in culture supernatants as follows. Affinity purified sheep anti-human IgG and goat anti-human IgM (Cappel, Cochranville, PA) were diluted 1:250 and 1:400 respectively, in carbonate coating buffer (0.05M sodium bicarbonate, 0.05M sodium carbonate, 0.15M sodium chloride). One hundred and fifty microliters of the antibody preparation were added to each well of a 96 well ELISA plate (EIA, Costar). The plates were sealed and incubated overnight at 4° C. and on the following day were washed 3 times with distilled water. Each well then received 350 μl of Dulbecco's PBS containing 1 mg/ml bovine serum albumin (BSA) and 0.5 mg/ml sodium azide. The plates were allowed to incubate for 1 hour at 37° C. and then washed 3 times with Dulbecco's PBS containing 0.5% stock Tween 20 (PBS-Tween) followed by 2 washes with distilled water. The plates were air dried and stored desiccated under a vacuum at 4° C. until use.

[3] = tested on: IgG production by human lymphocytes; test: Inhibition of IgG production by human lymphocytes in vitro (SAC activation, ELISA); settings: 8 days, vehicle control 0.78 ± 0.09
Text: as §1, §2, §3, §4, §5

SMILES	toxicity at concentrations suppressing human CTL generation (in words) [1]	IgM μg per culture (x ± S.E.M.) ([2]; 1 × 10^-6 molar)	IgM μg per culture (x ± S.E.M.) ([2]; 1 × 10^-7 molar) [μg per culture]	IgM μg per culture (x ± S.E.M.) ([2]; 1 × 10^-8 molar) [μg per culture]	IgM μg per culture (x ± S.E.M.) ([2]; 1 × 10^-9 molar) [μg per culture]	IgM μg per culture (x ± S.E.M.) ([2]; 1 × 10^-10 molar) [μg per culture]	IgG μg per culture (x ± S.E.M.) ([3]; 1 × 10^-6 molar)	IgG μg per culture (x ± S.E.M.) ([3]; 1 × 10^-7 molar) [μg per culture]	IgG μg per culture (x ± S.E.M.) ([3]; 1 × 10^-8 molar) [μg per culture]	IgG μg per culture (x ± S.E.M.) ([3]; 1 × 10^-9 molar) [μg per culture]	IgG μg per culture (x ± S.E.M.) ([3]; 1 × 10^-10 molar) [μg per culture]
C=C1/C(=C\C=C2/CCC[C@]3(C)[C@@H]([C@H](C)C[C@H](O)CC(C)(C)O)CC[C@@H]23)C[C@@H](O)C[C@@H]1O [1α,23S,25-(OH)3 --D3, 1α,23S,25-Trihydroxycholecalciferol]	non-toxic	undetectable	0.12 ± 0.07	0.46 ± 0.13	1.55 ± 0.96	4.61 ± 0.73	0.01 ± 0.002 μg per culture	0.02 ± 0.002	0.05 ± 0.01	1.14 ± 0.61	0.54 ± 0.18
C=C1/C(=C\C=C2/CCC[C@]3(C)[C@@H]([C@H](C)/C=C/[C@H](C)[C@](C)(O)CO)CC[C@@H]23)C[C@@H](O)C[C@@H]1O [1α,25S,26-(OH)3 --D2, 1α,25S,26-Trihydroxyergocalciferol]		0.01 ± 0.006 μg per culture	0.03 ± 0.01	0.14 ± 0.12	0.29 ± 0.17	1.09 ± 0.26	undetectable	0.01 ± 0.005	0.07 ± 0.02	0.08 ± 0.03	0.21 ± 0.06
C=C1/C(=C\C=C2/CCC[C@]3(C)[C@@H]([C@H](C)C=CC[C@](C)(O)CO)CC[C@@H]23)C[C@@H](O)C[C@@H]1O [1α,25S,26-(OH)3 --Δ^22 -D3, 1α,25S,26-Trihydroxy-Δ^22-cholecalciferol]		undetectable	0.05 ± 0.03	0.09 ± 0.04	0.24 ± 0.07	1.02 ± 0.34	0.005 ± 0.002 μg per culture	0.01 ± 0.002	0.04 ± 0.01	0.06 ± 0.03	0.20 ± 0.03
